Measured values taken from article PMC8330742, “New benzothieno[2,3-c]pyridines as non-steroidal CYP17 inhibitors: design, synthesis, anticancer screening, apoptosis induction, and in silico ADME profile studies” (Journal of Enzyme Inhibition and Medicinal Chemistry, 2021).
pIC50: −log10 of the molar value.

How the values were obtained:
[1] = test system: prostate cancer cell line (PC-3); assay: MTT cytotoxicity assay; type: cell-based, human; conditions: Homo sapiens
Procedure: The MTT method for monitoring in vitro cytotoxicity was used with multiwell plates. Three human cell lines, namely prostate cancer cell line (PC-3), renal cancer cell line (UO-31), and breast cancer cell line (MCF-7) were obtained from the American Type Culture Collection ATCC, Manassas, VA, USA). The cells were trypsinized and seeded in 96 well plates with a density of 1.2 − 1.8 × 10,000 cells/well for 24 h at 37 °C. After treating the cells with five concentrations of compound 5c (0.01, 0.1, 1, 10, 100 µM), an MTT solution (Sigma Co., St. Louis, MO, USA) (5 mg/mL in phosphate buffer solution) was applied to each well and […]. The plates were cultivated in 5% CO2 for 4 h at 37 °C. Successively, the remaining formazan crystals were dissolved in 100 µl of DMSO, and the absorbance was determined with the ROBONIK P2000 spectrophotometer at a wavelength of 570 nm. The obtained values were analysed using Gen5 software (BioTek, UK). The proliferation percentage in each treated cell line was standardised based on their control wells. Both tests have been conducted in triplicate. The IC50 values were calculated using sigmoidal dose-response curve fitting models. […] Each test included a blank containing a complete medium without cells.

CYP17 enzyme = CYP17 enzyme ELISA in mice prostate cancer model; type: in vivo; conditions: 5 mg/kg i.p., 5 days a week, ELISA of tissue (Mice testis)
Procedure: (§1) A total of 16 mice from the TRAMP/FVB background ([…], male, average 45 days, average weight […], mice with prostate cancer) were taken and divided into 2 groups with 8 animals in each group. One group of mice was given a drug in 0.2 ml of DMSO and phosphate-buffered saline (1:10) ratio (5 mg/kg body weight, i.p., 5 days a week). The control group animals were treated with 0.2 ml of DMSO and phosphate-buffered saline (1:10) ratio. A total of eight mice, four animals from each group, were examined at 13 weeks of age, and the remaining animals from each group were examined at 20 weeks for prostate tumour development. Treatment was stopped 24 h before killing the animals.
BioSource 2704060 96 assay kit is a sandwich enzyme immunoassay for in vitro quantitative measurement of CYP17 enzyme activity in mouse tissue homogenates, cell lysates, cell culture supernatant, and other biological fluids. Tested tissues were rinsed in ice-cold PBS to remove excess blood and weighed before homogenisation. The tissues were minced and homogenised in fresh lysis buffer with a glass homogeniser. (catalog: IS007, different lysis buffer needs to be chosen based on subcellular location of the target protein) (w:v = 1:20–1:50, e.g. 1 ml lysis buffer is added in 20–50 mg tissue sample) The resulting suspension was sonicated with an ultrasonic cell disrupter till the solution was clarified. The homogenates were centrifuged for 5 min at 10,000 × g, and the supernatant was collected. An Aliquot was assayed and stored at ≤ −20 °C.
The assay sample and standard were incubated together with CYP-HRP conjugate in an appropriate number of microplates pre-coated with an antibody specific for the CYP17 enzyme for 1 h. After the incubation period, the wells were decanted and washed five times. The wells were then incubated with a substrate for the HRP enzyme. […] Colour intensity was measured spectrophotometrically at 450 nm in a microplate reader. […]
Assay procedures: Wells for a standard, blank, and sample were prepared. […] The absorbance was measured immediately at 450 nm.

plasma testosterone = assay: Testosterone ELISA assay in mice prostate cancer model; type: in vivo; conditions: 5 mg/kg i.p., 5 days a week, ELISA, 5 mg/kg
Procedure: as §1
The BioVendor mouse/rat testosterone ELISA assay is a competitive immunoassay for the measurement of testosterone in rat and mouse serum or plasma based on the principle of competitive binding. An unknown amount of testosterone present in the sample (plasma or serum) and a known amount of testosterone conjugated to horseradish peroxidase compete for the binding sites of testosterone antiserum coated to the wells of a microplate. The sample was incubated with the microplate for 1 h, then washed four times. The HRP substrate solution was added followed by the stop solution. Colour change has been observed, and the optical density was measured at 450 nm.
Assay procedures: Sufficient number of microplate wells were prepared to accommodate standard and samples in duplicates. The standard, sample, and control (10 µL each) were dispensed with new disposable tips into appropriate wells. Incubation buffer 100 µL was dispensed into each well. Afterward, enzyme conjugate (50 µL) was added to each well and incubated for 60 min at room temperature on a microplate mixer. The content of the wells was discarded, and the wells were rinsed 4 times with diluted wash solution (300 µL per well). The substrate solution (200 µL) was added to each well and incubated in the dark without shaking for 30 min. The reaction was stopped by adding a stop solution (2 N hydrochloric acid solution, 50 µL) to each well. The absorbance of each well was determined at 450 nm.

CYP17 = conditions: Figure 1, known CYP17 inhibitors; cited from earlier work
WI-38 human cell line = assay: In vitro cytotoxicity on WI-38 human cell line (MTT); type: cell-based; conditions: WI-38 normal human cell line
Procedure: Cell Line cells were obtained from American Type Culture Collection and were cultured using DMEM (Invitrogen/Life Technologies) supplemented with 10% FBS (Hyclone), 10 µg/ml of insulin (Sigma), and 1% penicillin-streptomycin. All of the other chemicals and reagents were obtained from Sigma or Invitrogen. Plate cells were incubated (cells density 1.2–1.8 × 10,000 cells/well) in a volume of 100 µL complete growth medium and 100 ul of the tested compound per well in a 96-well plate for 24 h before the MTT assay. The cultures were removed from the incubator into a laminar flow hood or other sterile work area followed by the addition of reconstituted MTT in an amount equal to 10% of the culture medium volume, then incubated for an additional 2 h. After the incubation period, cultures were removed from the incubator, and the resulted formazan crystals were dissolved by adding an amount of MTT solubilisation solution [M-8910] equal to the original culture medium volume, then the absorbance at a wavelength of 570 nm was measured. Finally, the IC50 of the tested compound compared to the reference was calculated using GraphPad Prism software.

[2] = listed as Abireratone reference
[3] = listed as abiraterone reference

Row | SMILES | pIC50 [1] | CYP17 enzyme aver. conc. (CYP17 enzyme; [2]) [nM] | CYP17 enzyme aver. conc. (CYP17 enzyme; [3]) [nM] | Plasma testosterone aver. conc. (plasma testosterone; [2]) [nM] | Plasma testosterone aver. conc. (plasma testosterone; [3]) [nM] | pIC50 (CYP17) | pIC50 (WI-38 human cell line)
1 | C[C@]12CC[C@H](O)CC1=CC[C@@H]1[C@@H]2CC[C@]2(C)C(c3cccnc3)=CC[C@@H]12 [Abiraterone, abiraterone, reference compound] | 5.08 | 10.72 | 10.72 ± 0.17 | 13.79 | 13.79 ± 0.33 | 8.70 | 
2 | CN[C@@H]1C[C@H]2O[C@@](C)([C@@H]1OC)n1c3ccccc3c3c4c(c5c6ccccc6n2c5c31)C(=O)NC4 [staurosporine, reference compound] | 5.29 |  |  |  |  |  | 4.72
